Data published in patent US12558424B2, “T cells having enhanced anti-tumor activity” (The United States of America, as represented by the …, priority 2019, dated 2026).
pEC50, pIC50: −log10 of the molar value. Like-named read-outs stand apart in the source and are kept apart here.

Experiments:
lactate dehydrogenase = lactate dehydrogenase (Homo sapiens, UniProt P00338); assay: SPR binding (+NADH)
MiaPaCa [1] = assay: MiaPaCa Lactate OP; assay type: cell-based; details: Homo sapiens, MIA PaCa-2; MiaPaCa cells
MiaPaCa [2] = assay: MiaPaCa CTG; assay type: cell-based; details: Homo sapiens, MIA PaCa-2; MiaPaCa cells
LDA(B) = LDA(B) (Homo sapiens, UniProt P07195); assay: LDA(B) biochemical IC50
[3] = PK AUC after IV and PO dosing; details: in vivo
A673 [4] = assay: A673 Lactate OP; assay type: cell-based; details: Homo sapiens; A673 cells
A673 [5] = assay: A673 CTG; assay type: cell-based; details: Homo sapiens; A673 cells
LDH(A) = LDH(A) (Homo sapiens, UniProt P00338); assay: LDH(A) biochemical IC50
pmel-1 CD8+ T cells = assay: Flow cytometry of pmel-1 CD8+ T cell differentiation (CD44, CD62L, Sca-1); assay type: cell-based, mouse; details: NCI-737 1 μM
[6] = system: murine splenic CD8+ T cells; assay: U-13C-glucose tracer study; assay type: cell-based, mouse; details: NCI-737 1 μM
Experimental: (§1) Except where otherwise specified, all experiments were performed with murine splenic CD8+ T cells isolated with […] Technologies EasySep™ Mouse CD8+ T Cell Isolation Kit (catalog #19853). Following isolation, cells were resuspended at 1×10^6 cells/ml in T cell culture medium: RPMI 1640 medium (Thermo 11875093) containing 10% fetal bovine serum (FBS), 1× Glutamax (Life Technologies #35050-061), 1 mM sodium pyruvate, 0.1% β-mercaptoethanol, and penicillin/streptomycin. Cells were plated in 24-well tissue culture plates precoated with mouse anti-CD3 (2 μg/ml) and cultured with soluble mouse anti-CD28 (2 μg/ml) for 48 h. After incubation, cells were pooled, washed twice in media, and re-plated at 1×10^6 cells/ml. […] Unless otherwise specified, cells were stimulated for 48 h before being harvested. […]
(§2) Cells were then washed with media supplemented with dialyzed fetal bovine serum (“FBS”) (Thermo-Fischer #A3382001), replated in RPMI 1640 medium containing 10% dialyzed FBS, 1× Glutamax (ThermoFisher #35050061), 1 mM sodium pyruvate, 0.1% β-mercaptoethanol, and penicillin-streptomycin, and re-stimulated with same cytokine treatment for 5 h. […] Cell extracts were analyzed using a quadrupole-orbitrap mass spectrometer (Q Exactive, Thermo Fisher Scientific, San Jose, CA) coupled to hydrophilic interaction chromatography via electrospray ionization. […] Data were analyzed using EL-MAVEN software. […]

human CD8+ T cells = assay: Seahorse mitochondrial stress test (OCR, ECAR, SRC), human CD8+ T cells; assay type: cell-based; details: both IL-21 and IL-2
mouse CD8+ T cells = assay: Seahorse mitochondrial stress test (OCR, ECAR, SRC), mouse CD8+ T cells; assay type: cell-based; details: NCI-737 1 μM
Experimental: (§3) Except where otherwise specified, all experiments were performed with murine splenic CD8+ T cells isolated with […] Technologies EasySep™ Mouse CD8+ T Cell Isolation Kit (catalog #19853). Following isolation, cells were resuspended at 1×10^6 cells/ml in T cell culture medium: RPMI 1640 medium (Thermo 11875093) containing 10% fetal bovine serum (FBS), 1× Glutamax (Life Technologies #35050-061), 1 mM sodium pyruvate, 0.1% β-mercaptoethanol, and penicillin/streptomycin. Cells were plated in 24-well tissue culture plates precoated with mouse anti-CD3 (2 μg/ml) and cultured with soluble mouse anti-CD28 (2 μg/ml) for 48 h. After incubation, cells were pooled, washed twice in media, and re-plated at 1×10^6 cells/ml. […] Unless otherwise specified, cells were stimulated for 48 h before being harvested. Where noted, cells were treated (1 μM) with a novel, pyrazole-based LDH inhibitor (NCI-737, herein denoted as NCI-737) that was developed under the auspices of the NCI Experimental Therapeutics Program 29.
The oxygen consumption rates (OCR) and extracellular acidification rates (ECAR) were recorded using a Seahorse XFe96 Analyzer (Agilent). Cells were washed and resuspended in Agilent XF Assay Medium supplemented with 25 mM glucose, 1 mM sodium pyruvate, and 2 mM L-Glutamine. Cells were plated on Seahorse Assay plates at 0.2×10^6 cells/well and during the assay were exposed to 1 μM oligomycin, 1.5 μM trifluoromethoxy carbonylcyanide phenylhydrazone (“FCCP”), 100 nM rotenone, and 1 μM antimycin A, as indicated.

[7] = system: murine splenic CD8+ T cells; assay: LC-MS metabolomics of intracellular metabolites; assay type: cell-based, mouse; details: NCI-737 1 μM
Experimental: as §3
Cells were then washed with media supplemented with dialyzed fetal bovine serum (“FBS”) (Thermo-Fischer #A3382001), replated in RPMI 1640 medium containing 10% dialyzed FBS, 1× Glutamax (ThermoFisher #35050061), 1 mM sodium pyruvate, 0.1% β-mercaptoethanol, and penicillin-streptomycin, and re-stimulated with same cytokine treatment for 5 h. For ^13C labelling, cells were instead replated in media containing 2 g/L U^13C-glucose (Cambridge Isotope Laboratories #CLM-1396) for 6 h. 3×10^6 cells/replicate (3-4 replicates/treatment) were then transferred to microcentrifuge tubes and centrifuged for 1 min at 6000×g. Room temperature PBS was added to wash cell pellets followed by another round of centrifugation for 1 min. Pellets were then immediately resuspended in 150 μl of ice cold extraction solvent (40:40:20 acetonitrile:methanol:water+0.5% formic acid) for 5 min. After incubation, 13.2 μl of 15% ammonium bicarbonate, was added and samples were centrifuged for 15 min at maximum speed at 4° C. Supernatant containing cellular metabolites was transferred to a fresh tube, frozen in dry ice, and stored at −80° C. Cell extracts were analyzed using a quadrupole-orbitrap mass spectrometer (Q Exactive, Thermo Fisher Scientific, San Jose, CA) coupled to hydrophilic interaction chromatography via electrospray ionization. LC separation was on a XBridge BEH Amide column (2.1 mm×150 mm, 2.5 μm particle size; Waters, Milford, MA) using a gradient of solvent A (20 mM ammonium acetate, 20 mM ammonium hydroxide in 95:5 water: acetonitrile, pH 9.45) and solvent B (acetonitrile). The flow rate was 150 μl/min, column temperature was 25° C., autosampler temperature was 5° C., and injection volume was 10 μL. The LC gradient was: 0 min, 90% B; 2 min, 85% B; 3 min, 75% B; 7 min, 75% B; 8 min, 70% B; 9 min, 70% B; 10 min, 50% B; 12 min, 50% B; 13 min, 25% B; 14 min, 25% B; 16 min, 0% B; 21 min, 0% B; 22 min, 90% B; 25 min, 90% B. Autosampler temperature was 5° C., and injection volume was 10 μl. The mass spectrometer was operated in negative ion mode to scan from m/z 70 to 1000 at 1 Hz and a resolving power of 140,000 45. Data were analyzed using EL-MAVEN software. Isotope labeling was corrected for natural 13C abundance47. Media measurements were acquired using a YSI 2900 Series Biochemical Analyzer (Xylem).

[8] = system: murine splenic CD8+ T cells; assay: Media measurements of lactate secretion and glucose consumption (YSI 2900 analyzer); assay type: cell-based, mouse; details: IL-2- or IL-21-stimulated cells; NCI-737 1 μM
Experimental: as §1, §2

B16 melanoma (B16KVP) = assay: Mouse tumor model and adoptive transfer; assay type: in vivo
[9] = system: murine splenic CD8+ T cells; assay: RNA-Seq gene expression; assay type: cell-based, mouse
Experimental: as §3
Total RNA was extracted using an RNA miniprep kit (Zymo Research), and 500 ng RNA was used for library preparation. RNA-Seq libraries were prepared using mRNA HyperPrep Kits (KK8580, Kapa Biosystems) and indexed with NEXTflex DNA Barcodes-24. After final amplification, samples were loaded to 2% E-Gel pre-cast gels (ThermoFisher), and 250 to 400 bp DNA fragments were recovered and purified with Zymoclean Gel DNA Recovery Kit […]. After quantification by Qubit (Invitrogen), barcoded samples were mixed and sequenced on an Illumina HiSeq3000 platform. Sequenced reads (50 bp, single end) were obtained with the Illumina CASAVA pipeline and mapped to the mouse genome mm10 (GRCm38, December 2011) using Bowtie 2.2.649 and Tophat 2.2.149. Only uniquely mapped reads were retained. Raw counts that fell on exons were calculated and normalized by using RPKM (Reads Per Kilobase per Million mapped reads). Differentially expressed genes were identified with the R Bioconductor package edgeR50, and the expression heat maps were generated with the R package “pheatmap”. Metabolic genes were extracted from the KEGG pathway database, including those corresponding to Fatty Acid Biosynthesis/Degradation, Ox/Phos, Pyruvate metabolism, amino sugar and nucleotide sugar metabolism, pentose phosphate pathway, the citric acid cycle, and glycolysis/gluconeogenesis. Metabolic genes that overlapped with RNA-Seq data were subsequently shown in heat maps.

[10] = PO 50 mg/kg, read-out: PO 50 mg/kg AUC

Chain of LDA(B) (P07195 whole entry): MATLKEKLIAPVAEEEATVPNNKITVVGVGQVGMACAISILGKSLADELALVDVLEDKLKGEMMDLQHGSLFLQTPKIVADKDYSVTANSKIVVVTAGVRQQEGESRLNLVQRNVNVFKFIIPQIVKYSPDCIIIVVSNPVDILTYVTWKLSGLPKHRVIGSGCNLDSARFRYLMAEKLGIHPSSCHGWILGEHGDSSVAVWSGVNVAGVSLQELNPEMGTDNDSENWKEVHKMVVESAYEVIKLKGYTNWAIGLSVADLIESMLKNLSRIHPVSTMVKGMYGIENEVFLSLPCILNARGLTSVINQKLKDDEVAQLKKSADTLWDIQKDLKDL

For `Cc1ccc(C#Cc2cc(-c3nn(-c4nc(C(=O)O)cs4)c(CC4CC4)c3Cc3ccc(S(N)(=O)=O)c(F)c3)ccc2F)s1` [Compound 390006], the “SPR ka (+NADH)” value (lactate dehydrogenase) was 15000 M⁻¹ s⁻¹, the “SPR kd (+NADH)” value (lactate dehydrogenase) was less than 1e-06 s⁻¹ and the pEC50 (MiaPaCa [1]) was 6.55. For the same compound, the pEC50 (MiaPaCa [2]) was 6.45, the pIC50 (LDA(B)) was 7.28 and the AUC ([3]; IV 10 mg/kg) was 10600 ng·h/mL. It also gave an AUC [3, 10] of 31400 ng·h/mL, a pEC50 (A673 [4]) of 6.46 and a pEC50 (A673 [5]) of 6.52. It also gave a pIC50 (LDH(A)) of 7.10.

In the case of `Cc1ccc(C#Cc2cccc(-c3nn(-c4nc(C(=O)O)cs4)c(CC4CC4)c3Cc3ccc(S(N)(=O)=O)c(F)c3)c2)s1` [Compound 420737], the “SPR ka (+NADH)” value (lactate dehydrogenase) was 16000 M⁻¹ s⁻¹, the “SPR kd (+NADH)” value (lactate dehydrogenase) was less than 1e-06 s⁻¹ and the pEC50 (MiaPaCa [1]) was 6.63. For the same compound, the TSCM cells (pmel-1 CD8+ T cells; IL-2-treated pmel-1 cells) was “restored TSCM cells in IL-2-treated cells to the levels observed with IL-21”, the TSCM cells (pmel-1 CD8+ T cells; IL-21-treated pmel-1 cells) was “synergized with IL-21 to generate TSCM cells” and the pEC50 (MiaPaCa [2]) was 6.50. The “relative contribution of glucose into the TCA cycle” value ([6]; IL-2-treated cells) was “higher relative contribution”, the isotopomer distribution ([6]; IL-21-stimulated cells) was “little effect” and the ECAR (human CD8+ T cells) was “decreased”. The SRC (human CD8+ T cells) was “raised”, the ECAR (mouse CD8+ T cells; IL-2-treated cells) was “decreased” and the OCR (mouse CD8+ T cells; IL-2-treated cells) was “significantly increased”. The SRC (mouse CD8+ T cells; IL-2-treated cells) was “significantly increased”, the ECAR (mouse CD8+ T cells; IL-21-treated cells) was “did not significantly alter” and the SRC (mouse CD8+ T cells; IL-21-treated cells) was “did not significantly alter”. For the same compound, the “basal OCR” value (mouse CD8+ T cells; IL-21-treated cells) was “did not significantly alter”, the “increase in the NADH/NAD+ ratio” value ([7]; IL-2-treated cells) was roughly 100 fold and the intracellular pyruvate ([7]; IL-2-treated cells) was “markedly increased”. The “2-hydroxyglutarate (2HG)” value ([7]; IL-2 setting) was “decreased”, the “increase in glycolytic intermediates and FGAR” value ([7]; IL-2 setting) was greater than 4 fold and the “NADH/NAD+ ratio” value ([7]; IL-21 stimulated cells) was “slightly raised”. For the same compound, the intracellular pyruvate levels ([7]; IL-21 stimulated cells) was “did not alter”, the metabolite levels ([7]; IL-21 stimulated cells) was “little effect” and the lactate in cells ([7]; cells stimulated with either IL-2 or IL-21) was “lowered”. For the same compound, the pIC50 (LDA(B)) was 7.36, the glucose consumption [8] was “reduced” and the lactate secretion [8] was “reduced”. For the same compound, the “antitumor effect of adoptively transferred pmel-1 CD8+ T cells” value (B16 melanoma (B16KVP); IL-2-treated cells, NCI-737 1 μM only during in vitro expansion) was “augmented the antitumor effect to the level of IL-21-treated cells”, the “antitumor effect of adoptively transferred pmel-1 CD8+ T cells” value (B16 melanoma (B16KVP); cells generated with IL-21 and NCI-737 (1 μM, in vitro only)) was “the most potent” and the AUC ([3]; IV 10 mg/kg) was 16500 ng·h/mL. For the same compound, the AUC [3, 10] was 53400 ng·h/mL, the pEC50 (A673 [4]) was 6.46 and the “transcripts for exhaustion-associated transcription factors Nr4a1, Nr4a2, Nrfa3, Prdm1” value ([9]; IL-2-induced, addition of NCI-737) was “decreased by the addition of NCI-737 to levels similar to that observed in cells cultured with IL-21”. For the same compound, the “induction of Ldha by IL-2” value ([9]; IL-2 context, NCI-737 1 μM) was “prevented the induction”, the “levels of Ldhb” value ([9]; IL-2 context, NCI-737 1 μM) was “increased” and the XBP1 transcript expression ([9]; induced by IL-2, NCI-737) was “inhibited”. For the same compound, the “transcripts for exhaustion markers Lag3, Pdcd1, Cd244, Havcr2” value ([9]; induced by IL-21, addition of NCI-737) was “repressed”, the pEC50 (A673 [5]) was 6.66 and the pIC50 (LDH(A)) was 7.17.
